Here are results for 1 compound from EP0056114A1, “Pyridylamino benzoic acids, their preparation and use” (C.H. BOEHRINGER SOHN, priority 1981, dated 1982).

Structures are written as SMILES.

The assay has as its system Ratte. As to the kind of experiment: PCA test in the rat, oral administration. It is filed as in vivo. The settings on record: factor by which the ED50 is lower than that of Verbindung A (no absolute ED50 printed).

For the compound `CC(C)c1ccc(Nc2ccc(C(=O)O)cc2C(=O)O)nc1`, the “Fold lower ED50 than compound A (rat PCA test, oral)” value was “ca. 100 mal”.
